This assay has as its system shaved mice. Nature of the assay: Hair grow-promoting effect in shaved mice (method of Kubo et al.), hair grow score. The note with it: 0.2 ml of 0.2 % solution in 75 % ethanol applied to shaved back once a day, score 0-4, 15 mice. Type of assay: in vivo, ddy male mice. How it is done: According to the method of Kubo et al. (Yakugaku Zasshi 108 (10) P971-978 (1988)), an experiment was conducted using six weeks old ddy male mice. Depilatory cream was applied to the back of mice, and after 8 minutes, wiped off with absorbent cotton soaked with hot water at 40°C to remove hair at 4 to 5 cm². The next day, those mice with no injury and undepilated hair were selected and used as shaved mice. Each experimental group consisted of 15 mice.
Each 0.2 ml of a solution to be tested and a control solution were uniformly applied to the shaved part of mice with a brush once a day for 18 days.
Evaluation of the hair grow-promoting effect was conducted by evaluating a hair grow score at two day intervals for 18 days and testing a significance difference with Willcoxon Rank sum test. The following hair grow score standards were employed: 0: Completely no growth of hair is observed with naked eye 1: Recovery up to 25 % of normal state 2: Recovery up to 50 % of normal state 3: Recovery up to 75 % of normal state 4: Recovery up to nearly normal state and each standard score were further subdivided into three stages and hair grow score was obtained for each mouse.
The samples used for testing for effect were as follows: Control: 75 % etanol solution Preparation of the present invention: 0.2 % 6-[4-(1-cyclohexyl-1,2,3,4-tetrazol-5-yl)butoxy]-3,4-dihydrocarbostyril in 75 % ethanol solution The results are shown in Table 1.

SMILES strings stand for the structures.

Take `O=C1CCc2cc(OCCCCc3nnnn3C3CCCCC3)ccc2N1` [Prep. of invention, 6-[4-(1-cyclohexyl-1,2,3,4-tetrazol-5-yl)butoxy]-3,4-dihydrocarbostyril]: the “mean hair grow score ± S.E.” value is 0.12±0.07 (day 8 of treatment); 0.17±0.07 (day 10 of treatment); 0.72±0.17 (day 12 of treatment); 1.45±0.23 (day 14 of treatment); 2.25±0.27 (day 16 of treatment); 2.58±0.28 (day 18 of treatment).

For the origin of these results see patent publication EP0463173B1, “HAIR TONIC AND DRESSING COMPOSITION” (OTSUKA PHARMACEUTICAL CO., LTD., priority 1990, dated 1991).
